Laboratory results from US20050112573A1, “Method of detecting toxic substance” (priority 2001, published 2005).

Test system: yeast genes (level of expressed mRNA)
Test: DNA chip analysis of expressed mRNA of yeast genes after 2 h culture with a toxic chemical substance
Type: cell-based, Saccharomyces cerevisiae S288C
Conditions: for The level of expressed mRNA in the presence of chemical substance/ (ratio to absence of chemical substance): stress protein genes, DNA chip
Method in brief: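 S. cerevisiae S288C in YPD at 25 °C was exposed at log phase for 2 h to a growth-inhibiting, non-lethal concentration of the chemical. Poly(A) mRNA was reverse-transcribed with Cy3- or Cy5-dUTP and hybridized to a whole-genome yeast DNA chip (65 °C, >12 h). Values are fluorescence ratios versus untreated cells.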

S=C([S-])NCCNC(=S)[S-].[Zn+2] [(11), zinc N,N′-ethylenebis(dithiocarbamate)]
The level of expressed mRNA in the presence of chemical substance/absence: YOR253W (gene YOR253W): 0.9 | The level of expressed mRNA in the presence of chemical substance/absence: YOR267C (gene YOR267C): 0.4 | The level of expressed mRNA in the presence of chemical substance/absence: YOR325W (gene YOR325W): 0.6 | level of expressed mRNA in the presence of chemical substance/in its absence (gene YOR336W): 1.4 | level of expressed mRNA in the presence of chemical substance/in its absence (gene YOR344C): 0.6 | level of expressed mRNA in the presence of chemical substance/in its absence (gene YOR347C): 1.4 | The level of expressed mRNA in the presence of chemical substance/absence: YPL005W (gene YPL005W): 1.1 | level of expressed mRNA in the presence of chemical substance/in its absence (gene YPL017C): 0.4 | The level of expressed mRNA in the presence of chemical substance / the level in the absence of chemical substance, yeast gene YPL107W (gene YPL107W, DNA chip fluorescence ratio to control without chemical, 2 hours culture with chemical, growth-inhibiting non-lethal concentration): 1.1 | The level of expressed mRNA in the presence of chemical substance / the level in the absence of chemical substance, yeast gene YPL138C (gene YPL138C, DNA chip fluorescence ratio to control without chemical, 2 hours culture with chemical, growth-inhibiting non-lethal concentration): 0.5 | The level of expressed mRNA in the presence of chemical substance/absence: YPL150W (gene YPL150W): 1.1 | The level of expressed mRNA in the presence of chemical substance/absence: YPL151C (gene YPL151C): 0.9 | The level of expressed mRNA in the presence of chemical substance/absence: YPL152W (gene YPL152W): 1.4 | The level of expressed mRNA in the presence of chemical substance/absence: YPL168W (gene YPL168W): 0.7 | The level of expressed mRNA in the presence of chemical substance/absence: YPL180W (gene YPL180W): 1.0 | The level of expressed mRNA in the presence of chemical substance/absence: YPL188W (gene YPL188W): 1.0 | The level of expressed mRNA in the presence of chemical substance/absence: YPL221W (gene YPL221W): 1.0 | The level of expressed mRNA in the presence of chemical substance/absence: YPL225W (gene YPL225W): 0.9 | The level of expressed mRNA in the presence of chemical substance/absence: YPL249C (gene YPL249C): 0.9 | The level of expressed mRNA in the presence of chemical substance/absence: YPL260W (gene YPL260W): 1.0 | level of expressed mRNA in the presence of chemical substance/in its absence (gene YPL265W): 1.8 | level of expressed mRNA in the presence of chemical substance/in its absence (gene YPR006C): 2.4 | level of expressed mRNA in the presence of chemical substance/in its absence (gene YPR026W): 1.6 | The level of expressed mRNA in the presence of chemical substance/absence: YPR049C (gene YPR049C): 0.9 | The level of expressed mRNA in the presence of chemical substance/absence: YPR061C (gene YPR061C): 1.6 | The level of expressed mRNA in the presence of chemical substance/absence: YPR093C (gene YPR093C): 1.2 | The level of expressed mRNA in the presence of chemical substance/absence: YPR146C (gene YPR146C): 1.4 | The level of expressed mRNA in the presence of chemical substance/absence: YPR148C (gene YPR148C): 0.9 | The level of expressed mRNA in the presence of chemical substance/absence: YPR150W (gene YPR150W): 0.9 | The level of expressed mRNA in the presence of chemical substance/absence: YPR158W (gene YPR158W): 1.5 | The level of expressed mRNA in the presence of chemical substance/absence: YPR169W (gene YPR169W): 1.0 | The level of expressed mRNA in the presence of chemical substance/absence: YPR172W (gene YPR172W): 1.9 | The level of expressed mRNA in the presence of chemical substance/absence: YPR174C (gene YPR174C): 0.7 | The level of expressed mRNA in the presence of chemical substance/The level of expressed mRNA in the absence of chemical substance (yeast gene YAR010C): 0.9 | The level of expressed mRNA in the presence of chemical substance/The level of expressed mRNA in the absence of chemical substance (yeast gene YBL005W-A): 0.8 | The level of expressed mRNA in the presence of chemical substance/ (ratio to absence), gene YBL038W (yeast gene YBL038W, mitochondria-located protein genes, 2 h culture with chemical): 0.7 | The level of expressed mRNA in the presence of chemical substance/The level of expressed mRNA in the absence of chemical substance (yeast gene YBL041W): 1.6 | The level of expressed mRNA in the presence of chemical substance/The level of expressed mRNA in the absence of chemical substance (yeast gene YBL043W): 1.5 | The level of expressed mRNA in the presence of chemical substance/The level of expressed mRNA in the absence of chemical substance (yeast gene YBL078C): 4.6 | The level of expressed mRNA in the presence of chemical substance/ (ratio to absence of chemical substance) (yeast gene YBL093C): 1.3 | The level of expressed mRNA in the presence of chemical substance/ (in its absence), gene YBR036C (yeast gene YBR036C, ratio of DNA chip fluorescence intensity to that without chemical substance): 1.5 | The level of expressed mRNA in the presence of chemical substance/ (ratio to absence of chemical substance) (yeast gene YBR044C): 1.1 | The level of expressed mRNA in the presence of chemical substance/ (ratio to absence), gene YBR122C (yeast gene YBR122C, mitochondria-located protein genes, 2 h culture with chemical): 1.2 | The level of expressed mRNA in the presence of chemical substance/The level of expressed mRNA in the absence of chemical substance (yeast gene YBR214W): 3.2 | The level of expressed mRNA in the presence of chemical substance/ (ratio to absence), gene YBR251W (yeast gene YBR251W, mitochondria-located protein genes, 2 h culture with chemical): 1.5 | The level of expressed mRNA in the presence of chemical substance/ (in its absence), gene YBR298C (yeast gene YBR298C, ratio of DNA chip fluorescence intensity to that without chemical substance): 1.5 | The level of expressed mRNA in the presence of chemical substance/The level of expressed mRNA in the absence of chemical substance (yeast gene YCL020W): 1.3 | The level of expressed mRNA in the presence of chemical substance/The level of expressed mRNA in the absence of chemical substance (yeast gene YCL027W): 0.9 | The level of expressed mRNA in the presence of chemical substance/The level of expressed mRNA in the absence of chemical substance (yeast gene YCR004C): 1.9 | The level of expressed mRNA in the presence of chemical substance/ (ratio to absence), gene YCR046C (yeast gene YCR046C, mitochondria-located protein genes, 2 h culture with chemical): 1.5 | The level of expressed mRNA in the presence of chemical substance/The level of expressed mRNA in the absence of chemical substance (yeast gene YCR071C): 1.1 | The level of expressed mRNA in the presence of chemical substance/ (ratio to absence), gene YCR083W (yeast gene YCR083W, mitochondria-located protein genes, 2 h culture with chemical): 1.8 | The level of expressed mRNA in the presence of chemical substance/ (ratio to absence of chemical substance) (yeast gene YCR083W): 1.8 | The level of expressed mRNA in the presence of chemical substance/The level of expressed mRNA in the absence of chemical substance (yeast gene YCR088W): 1.0 | The level of expressed mRNA in the presence of chemical substance/The level of expressed mRNA in the absence of chemical substance (yeast gene YDL008W): 0.9 | The level of expressed mRNA in the presence of chemical substance/ in its absence, gene YDL067C (yeast gene YDL067C, energy system protein genes, 2 h culture with the chemical, ratio to control without chemical): 1.4 | The level of expressed mRNA in the presence of chemical substance/ (ratio to absence), gene YDL067C (yeast gene YDL067C, mitochondria-located protein genes, 2 h culture with chemical): 1.4
